Activity calls are given as the source filed them.
Legend:
[1] = target: Peroxisome proliferator-activated receptor gamma/Nuclear receptor coactivator 1 (Homo sapiens, UniProt P37231); format: functional;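 further: agonist potency as compounds enhance coactivator SRC-1 recruitment to PPARgamma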
[2] = target: Peroxisome proliferator-activated receptor gamma/Nuclear receptor coactivator 3 (Homo sapiens, UniProt P37231); format: functional;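 further: agonist potency for raising coactivator recruitment to the receptor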
[3] = target: Peroxisome proliferator-activated receptor gamma/Nuclear receptor coactivator 2 (Homo sapiens, UniProt P37231); format: functional;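 further: agonist potency for raising coactivator recruitment to the receptor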
NADPH oxidase 1 = target: T1, NADPH oxidase 1 (Homo sapiens, UniProt Q9Y5S8); format: functional, cell-based;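 further: Cell-based assay with luminescence read-out, IC50 derived from inhibitor dose-response curves; intracellular ROS from endogenous NOX1 in intact HT29 colon cancer cells; potency of inhibitors that lower the ROS luminescence signal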
T1 sequence (Q9Y5S8 whole entry): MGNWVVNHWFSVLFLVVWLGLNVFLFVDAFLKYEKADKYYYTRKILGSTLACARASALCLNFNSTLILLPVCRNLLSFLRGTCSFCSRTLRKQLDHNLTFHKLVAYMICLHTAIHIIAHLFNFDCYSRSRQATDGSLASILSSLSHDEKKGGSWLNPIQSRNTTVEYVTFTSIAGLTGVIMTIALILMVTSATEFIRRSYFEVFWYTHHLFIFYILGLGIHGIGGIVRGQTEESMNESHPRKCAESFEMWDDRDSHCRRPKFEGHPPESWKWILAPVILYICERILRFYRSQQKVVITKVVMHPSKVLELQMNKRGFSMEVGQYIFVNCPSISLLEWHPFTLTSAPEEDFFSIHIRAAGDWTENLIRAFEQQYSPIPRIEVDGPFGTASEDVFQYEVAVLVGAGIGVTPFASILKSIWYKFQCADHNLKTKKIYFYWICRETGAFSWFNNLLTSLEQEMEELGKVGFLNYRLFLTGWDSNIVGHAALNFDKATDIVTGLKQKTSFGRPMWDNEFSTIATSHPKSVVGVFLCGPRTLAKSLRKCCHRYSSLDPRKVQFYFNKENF

[4] = target: Beta-2 adrenergic receptor (Homo sapiens, UniProt P07550); assay: ADRB2 activation measured by internalization – cell-based, FAP fluorogen, flow cytometry, cherry pick 1, dose response (AID 588763); format: functional
Chain of Beta-2 adrenergic receptor (P07550 whole entry): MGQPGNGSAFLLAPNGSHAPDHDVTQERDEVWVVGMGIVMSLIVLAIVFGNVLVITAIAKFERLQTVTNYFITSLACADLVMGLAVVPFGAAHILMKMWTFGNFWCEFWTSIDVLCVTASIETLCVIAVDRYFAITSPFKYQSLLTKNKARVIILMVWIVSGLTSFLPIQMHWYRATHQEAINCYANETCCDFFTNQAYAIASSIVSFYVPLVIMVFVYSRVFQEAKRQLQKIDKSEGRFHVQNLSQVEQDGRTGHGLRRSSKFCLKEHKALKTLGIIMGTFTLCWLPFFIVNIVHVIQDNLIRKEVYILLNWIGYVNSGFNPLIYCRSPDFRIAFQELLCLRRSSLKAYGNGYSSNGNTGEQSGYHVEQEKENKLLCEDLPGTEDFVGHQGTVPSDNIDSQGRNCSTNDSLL

Bcl-2-like protein 10 = target: T2, Bcl-2-like protein 10 (Homo sapiens, UniProt Q9HD36); assay: Concentration-response of Bcl-B inhibitors by biochemical FP with TR3 (AID 1243); format: functional
T2 sequence (Q9HD36 whole entry): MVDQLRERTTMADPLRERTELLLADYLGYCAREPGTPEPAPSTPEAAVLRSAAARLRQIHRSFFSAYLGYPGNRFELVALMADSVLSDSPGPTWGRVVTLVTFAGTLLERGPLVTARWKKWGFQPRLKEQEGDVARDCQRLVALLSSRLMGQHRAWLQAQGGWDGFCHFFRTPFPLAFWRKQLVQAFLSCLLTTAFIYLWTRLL

Estrogen receptor beta [5] = target: T3, Estrogen receptor beta (Homo sapiens, UniProt Q92731); assay: blockers of SRC-3 recruitment to ERβ – biochemical, ELISA, streptavidin-HRP readout, orthogonal assay, confirmation (AID 1060)
T3 sequence (Q92731 whole entry): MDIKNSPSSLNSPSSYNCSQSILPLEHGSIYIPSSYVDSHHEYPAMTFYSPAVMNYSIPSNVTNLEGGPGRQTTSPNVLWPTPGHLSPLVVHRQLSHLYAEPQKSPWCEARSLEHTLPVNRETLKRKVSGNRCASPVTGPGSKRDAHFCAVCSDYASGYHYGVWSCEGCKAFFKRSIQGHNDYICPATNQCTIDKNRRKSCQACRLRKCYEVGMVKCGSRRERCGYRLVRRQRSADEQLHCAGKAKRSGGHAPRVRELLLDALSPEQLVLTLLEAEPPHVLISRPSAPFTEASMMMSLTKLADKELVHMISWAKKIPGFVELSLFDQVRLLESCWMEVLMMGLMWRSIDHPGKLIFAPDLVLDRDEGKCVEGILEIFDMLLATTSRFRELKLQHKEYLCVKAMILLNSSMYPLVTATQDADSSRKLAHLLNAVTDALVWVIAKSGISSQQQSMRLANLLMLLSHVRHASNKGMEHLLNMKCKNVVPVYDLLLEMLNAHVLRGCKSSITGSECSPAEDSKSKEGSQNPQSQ

Estrogen receptor beta [6] = target: T3, Estrogen receptor beta
[7] = Luminescence Cell-Based Dose Confirmation HTS to Identify Inhibitors of Polyadenylation.; format: functional
[8] = target: T4, Corticotropin-releasing factor receptor 2/Corticotropin-releasing factor-binding protein (Homo sapiens, UniProt P24387+Q13324); assay: activators of CRF receptor 2 with binding protein – uHTS hits, confirmation (AID 602473); format: functional; settings: read-out: EC50_Mean
T4 sequence (Q13324 whole entry): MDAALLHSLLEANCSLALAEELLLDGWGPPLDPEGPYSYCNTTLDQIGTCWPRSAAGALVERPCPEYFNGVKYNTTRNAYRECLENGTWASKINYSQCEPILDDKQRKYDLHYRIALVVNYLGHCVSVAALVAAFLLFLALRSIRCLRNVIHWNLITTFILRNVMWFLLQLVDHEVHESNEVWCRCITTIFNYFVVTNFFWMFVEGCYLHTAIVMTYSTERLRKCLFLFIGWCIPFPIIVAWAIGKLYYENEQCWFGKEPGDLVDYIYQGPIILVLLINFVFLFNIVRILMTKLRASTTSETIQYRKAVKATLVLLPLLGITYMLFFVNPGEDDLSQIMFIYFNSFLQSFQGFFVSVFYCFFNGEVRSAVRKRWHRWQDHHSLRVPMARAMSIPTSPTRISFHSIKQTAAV
T4 sequence (P24387 whole entry): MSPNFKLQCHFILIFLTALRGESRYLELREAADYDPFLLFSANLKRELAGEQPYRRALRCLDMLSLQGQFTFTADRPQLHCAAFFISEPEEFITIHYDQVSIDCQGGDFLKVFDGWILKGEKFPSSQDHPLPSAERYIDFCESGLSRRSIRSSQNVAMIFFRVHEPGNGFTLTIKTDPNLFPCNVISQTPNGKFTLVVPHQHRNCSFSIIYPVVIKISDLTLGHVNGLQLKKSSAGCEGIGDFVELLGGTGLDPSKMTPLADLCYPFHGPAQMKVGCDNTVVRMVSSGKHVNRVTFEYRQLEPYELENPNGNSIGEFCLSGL

[9] = viability of HCT116 lacking mutant beta-catenin – cell-based, human colon tumor, dose response (AID 1045); format: functional;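 further: HCT116 colon tumor cells with beta catenin knocked out; cells exposed to compound for 60 hours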
[10] = viability of PTEN-deleted HCT116 cells – cell-based, HCT116 PTEN knockout, dose response (AID 1047); format: functional;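 further: HCT116 colon tumor cells with PTEN knocked out; cells exposed to compound for 60 hours before readout; potency for loss of cell viability measured by luminescence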
[11] = loss of viability in HepG2 cells – cell-based, CellTiter-Glo, cherry-picked, cytotoxicity control for Shn3 inhibitor project, dose response (AID 624134); format: functional
[12] = target: Scavenger receptor class B member 1 (Mus musculus, UniProt Q61009); assay: mouse SR-BI DiI-HDL uptake blockers – ldlA[mSR-BI] cells, fluorescence, cherry pick, dose response (AID 493194); format: functional, cell-based;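 further: cellular uptake of fluorescent DiI-labeled HDL measured as cell fluorescence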
Chain of Scavenger receptor class B member 1 (Q61009 whole entry): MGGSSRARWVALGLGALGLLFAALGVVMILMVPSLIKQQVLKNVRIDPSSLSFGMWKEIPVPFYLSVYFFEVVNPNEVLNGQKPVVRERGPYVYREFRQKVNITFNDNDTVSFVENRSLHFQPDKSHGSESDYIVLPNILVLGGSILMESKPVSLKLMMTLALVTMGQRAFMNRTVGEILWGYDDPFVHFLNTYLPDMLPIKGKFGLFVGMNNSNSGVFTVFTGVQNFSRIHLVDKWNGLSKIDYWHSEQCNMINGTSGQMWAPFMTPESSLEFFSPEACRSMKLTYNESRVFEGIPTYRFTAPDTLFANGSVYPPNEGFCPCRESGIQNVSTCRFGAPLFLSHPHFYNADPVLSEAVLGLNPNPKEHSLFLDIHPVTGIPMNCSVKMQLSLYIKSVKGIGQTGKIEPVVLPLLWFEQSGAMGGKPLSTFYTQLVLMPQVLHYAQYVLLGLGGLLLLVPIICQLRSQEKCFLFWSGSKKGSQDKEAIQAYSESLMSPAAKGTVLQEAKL

[13] = reduction of Shn3 3'UTR-driven luciferase in osteoblasts – cell-based, Clone20 osteoblasts, firefly luciferase, cherry-picked, dose response (AID 624132); format: functional;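 further: firefly luciferase luminescence from reporter carrying the Shn3 3'UTR in osteoblasts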
[14] = non-specific 3'UTR reporter inhibition in Clone20-Shn3RL – cell-based, Renilla luciferase, cherry-picked, counter-screen for Shn3 inhibitor project, dose response (AID 624133); format: functional
[15] = target: T5, Dual specificity protein phosphatase 6 (Rattus norvegicus, UniProt Q64346)
T5 sequence (Q64346 whole entry): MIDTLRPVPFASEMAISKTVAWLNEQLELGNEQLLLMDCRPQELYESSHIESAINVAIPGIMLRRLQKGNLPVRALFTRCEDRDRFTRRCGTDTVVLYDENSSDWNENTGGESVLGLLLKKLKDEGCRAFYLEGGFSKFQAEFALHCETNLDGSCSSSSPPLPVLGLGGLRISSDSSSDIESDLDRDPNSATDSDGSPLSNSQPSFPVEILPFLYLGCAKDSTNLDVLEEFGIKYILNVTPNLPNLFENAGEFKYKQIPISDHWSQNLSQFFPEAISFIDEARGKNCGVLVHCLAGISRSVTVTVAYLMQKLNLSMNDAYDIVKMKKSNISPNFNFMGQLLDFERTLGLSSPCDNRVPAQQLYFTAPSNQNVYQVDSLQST

[16] = target: T5, Dual specificity protein phosphatase 6; format: functional
[17] = target: T6, Tyrosine-protein phosphatase non-receptor type 7 (Homo sapiens, UniProt P35236); format: functional
T6 sequence (P35236 whole entry): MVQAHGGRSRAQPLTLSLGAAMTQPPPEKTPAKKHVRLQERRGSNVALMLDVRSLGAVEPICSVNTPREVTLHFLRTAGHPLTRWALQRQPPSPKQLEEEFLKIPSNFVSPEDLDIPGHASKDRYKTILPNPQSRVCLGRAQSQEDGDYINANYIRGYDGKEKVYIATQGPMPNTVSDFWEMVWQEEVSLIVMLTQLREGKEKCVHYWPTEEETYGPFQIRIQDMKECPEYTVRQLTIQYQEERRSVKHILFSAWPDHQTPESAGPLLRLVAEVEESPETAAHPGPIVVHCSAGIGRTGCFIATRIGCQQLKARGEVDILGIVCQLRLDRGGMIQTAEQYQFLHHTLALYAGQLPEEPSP

[18] = target: Glyceraldehyde-3-phosphate dehydrogenase (Homo sapiens, UniProt P04406)
Chain of Glyceraldehyde-3-phosphate dehydrogenase (P04406 whole entry): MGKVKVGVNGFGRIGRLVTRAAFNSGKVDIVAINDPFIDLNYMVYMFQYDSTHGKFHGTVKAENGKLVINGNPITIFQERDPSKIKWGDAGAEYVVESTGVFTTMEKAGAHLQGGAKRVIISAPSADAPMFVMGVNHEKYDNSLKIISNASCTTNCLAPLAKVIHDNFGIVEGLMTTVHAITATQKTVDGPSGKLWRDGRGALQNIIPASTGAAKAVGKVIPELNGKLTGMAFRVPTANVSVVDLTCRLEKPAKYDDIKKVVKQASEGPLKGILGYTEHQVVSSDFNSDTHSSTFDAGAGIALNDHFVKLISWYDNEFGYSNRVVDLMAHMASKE

Ion channel NompC = Ion channel NompC (Danio rerio, UniProt Q7T1G6); assay: Fluorescence counterscreen assay for TRPML3 agonists: dose response cell-based high-throughput screening assay to identify agonists of the transient receptor potential channel N1 (TRPN1). [Related pubchem assays: 1526, 1424, 1448 ]; format: functional
Chain of Ion channel NompC (Q7T1G6 whole entry): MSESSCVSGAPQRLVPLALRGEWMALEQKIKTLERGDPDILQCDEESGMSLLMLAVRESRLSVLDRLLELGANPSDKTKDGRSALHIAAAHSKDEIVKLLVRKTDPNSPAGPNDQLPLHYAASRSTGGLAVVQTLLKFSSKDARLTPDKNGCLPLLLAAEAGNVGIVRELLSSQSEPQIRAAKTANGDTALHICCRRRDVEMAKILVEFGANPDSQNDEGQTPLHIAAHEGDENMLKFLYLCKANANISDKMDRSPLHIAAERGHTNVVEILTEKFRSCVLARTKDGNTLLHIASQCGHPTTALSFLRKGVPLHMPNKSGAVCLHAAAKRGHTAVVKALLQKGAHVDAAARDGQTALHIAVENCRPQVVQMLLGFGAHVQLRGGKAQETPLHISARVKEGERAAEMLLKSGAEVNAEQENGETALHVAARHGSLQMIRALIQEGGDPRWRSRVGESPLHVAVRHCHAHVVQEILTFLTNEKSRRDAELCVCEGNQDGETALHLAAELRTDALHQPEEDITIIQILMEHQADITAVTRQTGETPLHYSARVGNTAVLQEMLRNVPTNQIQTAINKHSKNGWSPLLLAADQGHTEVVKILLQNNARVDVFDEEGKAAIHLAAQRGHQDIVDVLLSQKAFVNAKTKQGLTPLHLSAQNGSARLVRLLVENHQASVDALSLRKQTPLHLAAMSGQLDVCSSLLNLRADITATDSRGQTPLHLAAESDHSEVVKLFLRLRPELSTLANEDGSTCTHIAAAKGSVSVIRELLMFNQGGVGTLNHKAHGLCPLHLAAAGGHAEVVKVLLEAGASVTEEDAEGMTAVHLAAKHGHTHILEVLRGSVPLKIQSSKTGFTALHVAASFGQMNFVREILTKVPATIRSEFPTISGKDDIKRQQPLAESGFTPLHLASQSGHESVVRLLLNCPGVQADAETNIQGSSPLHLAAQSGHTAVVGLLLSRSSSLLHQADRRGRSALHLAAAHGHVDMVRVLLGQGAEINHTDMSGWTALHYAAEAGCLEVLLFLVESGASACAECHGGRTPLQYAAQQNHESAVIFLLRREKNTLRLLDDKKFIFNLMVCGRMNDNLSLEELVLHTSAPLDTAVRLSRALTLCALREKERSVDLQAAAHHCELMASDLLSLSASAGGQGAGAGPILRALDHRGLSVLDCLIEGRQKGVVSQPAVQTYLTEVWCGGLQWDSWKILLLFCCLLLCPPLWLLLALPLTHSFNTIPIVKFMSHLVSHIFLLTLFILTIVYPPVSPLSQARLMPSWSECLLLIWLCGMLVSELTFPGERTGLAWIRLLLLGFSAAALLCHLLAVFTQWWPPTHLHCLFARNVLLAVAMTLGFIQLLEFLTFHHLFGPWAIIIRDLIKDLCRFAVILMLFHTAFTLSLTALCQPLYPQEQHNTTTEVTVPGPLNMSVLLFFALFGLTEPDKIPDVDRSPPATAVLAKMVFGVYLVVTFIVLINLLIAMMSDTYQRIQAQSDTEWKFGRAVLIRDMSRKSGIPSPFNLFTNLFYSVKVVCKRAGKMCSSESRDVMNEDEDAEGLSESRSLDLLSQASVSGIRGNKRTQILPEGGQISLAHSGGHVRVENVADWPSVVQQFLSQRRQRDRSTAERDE

Mucolipin-3 = Mucolipin-3 (Homo sapiens, UniProt Q8TDD5); assay: Dose response cell-based high-throughput screening assay for agonists of the transient receptor potential channel ML3 (TRPML3). [Related pubchem assays: 1526, 1424, 1448 ]; format: functional
Chain of Mucolipin-3 (Q8TDD5 whole entry): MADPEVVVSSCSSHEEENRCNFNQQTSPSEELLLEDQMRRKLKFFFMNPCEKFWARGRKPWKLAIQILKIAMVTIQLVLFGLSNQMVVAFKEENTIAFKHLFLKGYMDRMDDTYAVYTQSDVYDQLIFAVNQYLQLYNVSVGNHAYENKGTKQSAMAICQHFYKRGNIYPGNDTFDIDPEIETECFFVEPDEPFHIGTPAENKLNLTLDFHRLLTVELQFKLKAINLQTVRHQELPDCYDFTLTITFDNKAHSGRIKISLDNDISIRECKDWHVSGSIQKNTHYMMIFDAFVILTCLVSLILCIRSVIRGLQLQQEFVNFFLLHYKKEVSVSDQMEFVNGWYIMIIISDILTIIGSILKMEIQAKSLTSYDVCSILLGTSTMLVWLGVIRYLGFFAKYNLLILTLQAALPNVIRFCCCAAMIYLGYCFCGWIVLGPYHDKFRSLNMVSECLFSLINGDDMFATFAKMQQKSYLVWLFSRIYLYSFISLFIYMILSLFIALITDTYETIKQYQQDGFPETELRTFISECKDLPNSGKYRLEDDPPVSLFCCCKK

Melanocortin receptor 4 = Melanocortin receptor 4 (Homo sapiens, UniProt P32245); format: functional, cell-based;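 further: Cell-based assay with luminescence read-out, confirmatory dose-response testing for agonist activity of biased ligands at MC4R; human U2OS cells with tagged receptor and beta-arrestin; potency of agonists that increase receptor coupling to beta-arrestin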
Chain of Melanocortin receptor 4 (P32245 whole entry): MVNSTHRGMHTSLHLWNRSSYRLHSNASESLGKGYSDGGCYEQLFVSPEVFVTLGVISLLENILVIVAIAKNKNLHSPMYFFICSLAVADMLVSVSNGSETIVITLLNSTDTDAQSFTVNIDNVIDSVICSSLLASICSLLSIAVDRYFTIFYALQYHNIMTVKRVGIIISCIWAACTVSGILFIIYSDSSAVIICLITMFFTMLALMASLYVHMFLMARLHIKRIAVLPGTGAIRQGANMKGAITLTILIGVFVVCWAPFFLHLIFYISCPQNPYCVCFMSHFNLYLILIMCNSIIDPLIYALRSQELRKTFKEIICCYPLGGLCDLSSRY

Estrogen receptor = target: T7, Estrogen receptor (Homo sapiens, UniProt P03372);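 further: potency for inhibiting coactivator peptide recruitment to the receptor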
T7 sequence (P03372 whole entry): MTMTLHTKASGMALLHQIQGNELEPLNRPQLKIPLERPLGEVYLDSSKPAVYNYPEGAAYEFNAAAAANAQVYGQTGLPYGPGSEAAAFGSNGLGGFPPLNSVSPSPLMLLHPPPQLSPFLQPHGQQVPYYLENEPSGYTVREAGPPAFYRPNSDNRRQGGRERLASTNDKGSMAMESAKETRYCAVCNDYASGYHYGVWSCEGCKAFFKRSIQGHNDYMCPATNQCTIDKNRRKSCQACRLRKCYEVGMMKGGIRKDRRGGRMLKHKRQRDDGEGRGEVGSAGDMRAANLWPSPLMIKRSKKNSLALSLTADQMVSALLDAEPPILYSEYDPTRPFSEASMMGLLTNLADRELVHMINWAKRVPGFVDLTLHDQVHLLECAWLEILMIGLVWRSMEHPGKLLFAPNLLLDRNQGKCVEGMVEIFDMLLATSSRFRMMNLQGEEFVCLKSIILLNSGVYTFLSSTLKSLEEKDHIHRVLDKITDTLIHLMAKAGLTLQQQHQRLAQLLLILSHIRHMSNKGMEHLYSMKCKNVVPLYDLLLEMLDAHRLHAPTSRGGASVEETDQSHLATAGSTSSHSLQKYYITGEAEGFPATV

COc1cc(C(=S)N2CCOCC2)cc(OC)c1OC(=O)c1cc([N+](=O)[O-])c(C)c([N+](=O)[O-])c1
EC50 [1]: > 79.4 µM (not active)
EC50 [2]: > 79.4 µM (not active)
EC50 [3]: > 79.4 µM (not active)

O=C(Cc1ccccc1)NNC(=O)Cc1ccccc1
IC50 (NADPH oxidase 1): > 17 µM (not active)

CCCCCCN1C(=O)NC(=O)/C(=C\Nc2c(C)n(C)n(-c3ccccc3)c2=O)C1=O
EC50 [1]: > 79.4 µM (not active)
EC50 [2]: > 79.4 µM (not active)
EC50 [4]: 1.31 µM (active)
EC50 [3]: > 79.4 µM (not active)

Cc1cc(C)nc(/N=C(\N)Nc2cccc(N)c2)n1
EC50 (Bcl-2-like protein 10): 5.45 µM (active)

c1ccc(-c2nnc3sc(Cc4cccs4)nn23)cc1
IC50 (Estrogen receptor beta [5]): > 109 µM (not active)
IC50 (Estrogen receptor beta [6]): 21.6 µM (active)

O=C1C=CC2=C3Oc4c(ccc5cc(O)ccc45)C(c4ccccc4C(=O)O)C3C=CC2=C1 (stereo not drawn)
EC50 (Bcl-2-like protein 10): 1.68 µM (active)

C/C(=C\C=C(C#N)C#N)c1cc(C#N)c(N)o1
EC50 [7]: 11.1 µM (active)
EC50 [8]: 5.13 µM (active)

O=C(Nc1ccc(Cl)c(Cl)c1)Nc1ccc(N2CCCC2)c(S(=O)(=O)Nc2ccccc2Cl)c1
EC50 [9]: 3.8 µM (active)
EC50 [10]: 3.35 µM (active)
AC50 [11]: 27 µM (active)
AC50 [12]: 12.7 µM (active)
AC50 [13]: 5.13 µM (active)
AC50 [14]: 11.4 µM (active)

CCCCCCCCCCCCCCCCCCC#CCCCCCCCCCCCC(=O)O
IC50 [15]: > 100 µM (inactive)
IC50 [16]: > 100 µM (inactive)
IC50 [17]: 28.3 µM (active)
IC50 [18]: > 100 µM (not active)

Cn1c(=O)n(-c2ccc(Cl)cc2)c(=O)n([C@@H](Cc2ccccc2)C(N)=O)c1=O
IC50 [15]: > 100 µM (inactive)
IC50 [16]: > 100 µM (inactive)
IC50 [17]: > 100 µM (not active)
IC50 [18]: > 100 µM (not active)

Cc1ccc(S(=O)(=O)N2C(=S)SCC2(C)C)cc1
EC50 (Ion channel NompC): > 29.9 µM (not active)
EC50 (Mucolipin-3): 7.22 µM (active)

CCOc1ccccc1N1CCN(S(=O)(=O)c2ccc(Cl)s2)CC1
EC50 (Ion channel NompC): > 29.9 µM (not active)
EC50 (Mucolipin-3): 8.16 µM (active)

O=C(NNC(=O)c1cc(Br)ccc1O)c1csc(N2CCOCC2)n1
AC50 [12]: 2.75 µM (active)

CCN1C(=O)/C(=C2/Sc3ccc(OC)cc3N2C)S/C1=N\c1cccc(O)c1
IC50 (Estrogen receptor beta [5]): 0.0604 µM (not active)
EC50 (Melanocortin receptor 4): > 89.2 µM (inactive)
IC50 (Estrogen receptor beta [6]): > 50 µM (not active)
IC50 (Estrogen receptor): > 50 µM (not active)

CN(C)CCCN1c2ccccc2Sc2ccc(Cl)cc21 [CHLORPROMAZINE]
IC50 (NADPH oxidase 1): > 17 µM (not active)
